Laboratory results as given in patent US20110294722A1, “ANTIMICROBIAL PEPTIDES” (priority 2008, published 2011).
Where two headings read alike, the source gives them in different places. No end group written: not given here.

What was measured:
Format in all cases: cell-based
[1] = system: Pectobacterium carotovorum; conditions: Pectobacterium carotovorum; for MIC (>90% inhibition): 1-2 days at 25° C.; for LC (lethal concentration, 100% inhibition): at least 4 days of incubation
Method: (§1) In-vitro inhibition assays were performed in sterile flat-bottom 96-well plates (Greiner bio-one, Frickenhausen). Antimicrobial peptides were dissolved in 0.01% acetic acid containing 0.2% BSA (500 μg/ml), filter sterilized and stored at −20° C. For inhibition assays dilutions of peptides ranging from 5 to 200 μg/ml were prepared and 10 μl (antibacterial assay) or 20 (antifungal assay) of each concentration was loaded per well.
(§2) Bacteria colonies from overnight agar plate cultures were resuspended into 5 ml LB-medium or HPG-medium (OD600 nm=0.08-0.1) and diluted into LB-medium/HPG-medium (1:100). 90 μl of this suspension containing about 10^5-10^6 CFU/ml of tested bacteria were added to each well resulting in final peptide concentrations of 0, 0.5, 1, 2, 5, 10, and 20 μg/ml. […] The lowest concentration, in which there is no observable growth (>90% inhibition) is referred to as minimal inhibitory concentration (MIC). […] For each peptide concentration two identical inhibition assays were performed.

[2] = system: Pseudomonas corrugata; conditions: Pseudomonas corrugata; for MIC (>90% inhibition): 1-2 days at 25° C.; for LC (lethal concentration, 100% inhibition): at least 4 days of incubation
Method: as §1, §2

[3] = system: Pseudomonas syringae pv. syringae; conditions: Pseudomonas syringae pv. syringae; for MIC (>90% inhibition): 1-2 days at 25° C.; for LC (lethal concentration, 100% inhibition): at least 4 days of incubation
Method: as §1, §2

[4] = system: Pseudomonas syringae pv. tomato; conditions: for LC (lethal concentration, 100% inhibition): at least 4 days of incubation
Method: as §1, §2

[5] = system: Clavibacter michiganensis; test: In-vitro inhibition assay (MIC and LC), Example 3; conditions: for MIC (>90% inhibition): 1-2 days at 25° C.; for LC (lethal concentration, 100% inhibition): at least 4 days of incubation
Method: as §1, §2

[6] = system: Xanthomonas vesicatoria; test: In-vitro inhibition assay (MIC and LC), Example 3; conditions: for MIC (>90% inhibition): 1-2 days at 25° C.; for LC (lethal concentration, 100% inhibition): at least 4 days of incubation
Method: as §1, §2

[7] = Pseudomonas syringae pv. tomato, 1-2 days at 25° C.
[8] = Pseudomonas syringae pv. tomato

Substance | MIC (>90% inhibition) [1] | LC (lethal concentration, 100% inhibition) [1] | MIC (>90% inhibition) [2] | LC (lethal concentration, 100% inhibition) [2] | MIC (>90% inhibition) [3] | LC (lethal concentration, 100% inhibition) [3] | MIC (>90% inhibition) [4, 7] | LC (lethal concentration, 100% inhibition) [4, 8] | MIC (>90% inhibition) [5] | LC (lethal concentration, 100% inhibition) [5] | MIC (>90% inhibition) [6] | LC (lethal concentration, 100% inhibition) [6] | MIC (>90% inhibition) [4]
RKKKLKFFKRLF-NH2 [Sp1-11] | >10/>10 μg/ml | >10/>10 μg/ml | 0.25 µg/mL | 1.0 µg/mL | 1.0 µg/mL | 2.5 µg/mL | >10/>10 μg/ml | >10/>10 μg/ml | 2.5 µg/mL | 5.0 µg/mL | 2.5 µg/mL | 10 µg/mL | –
RKKRLKLLKRLL-NH2 [SP1-1] | – | >10/>10 μg/ml | < 0.1 µg/mL | 0.25 µg/mL | 0.1/0.1 μg/ml | 0.1/0.1 μg/ml | – | >10/>10 μg/ml | 2.5/2.5 μg/ml | 2.5/2.5 μg/ml | 0.1 µg/mL | 0.25 µg/mL | >10/>10 μg/ml
RKKRKKLLKRLI-NH2 [SP1-20] | >10/>10 μg/ml | >10/>10 μg/ml | 0.5/0.5 μg/ml | 0.5/0.5 μg/ml | 0.25 µg/mL | 10 µg/mL | 10/>10 μg/ml | 10/>10 μg/ml | 5.0 µg/mL | 10 µg/mL | 10/>10 μg/ml | 10/>10 μg/ml | –
RKKRLRVVRRLV-NH2 [SP1-5] | >10/>10 μg/ml | >10/>10 μg/ml | 5.0 µg/mL | – | >10/>10 μg/ml | >10/>10 μg/ml | 1.0 µg/mL | 2.5 µg/mL | >10/>10 μg/ml | >10/>10 μg/ml | >10/>10 μg/ml | >10/>10 μg/ml | –
RKKRLKVVKRLV-NH2 [SP1-4] | >10/>10 μg/ml | >10/>10 μg/ml | >10/>10 μg/ml | >10/>10 μg/ml | 5.0 µg/mL | > 10 µg/mL | 2.5 µg/mL | > 10 µg/mL | >10/>10 μg/ml | >10/>10 μg/ml | >10/>10 μg/ml | >10/>10 μg/ml | –
KRKKLLKRLL-NH2 [SP1-15] | >10/>10 μg/ml | >10/>10 μg/ml | <0.1/<0.1 μg/ml | <0.1/<0.1 μg/ml | 0.1 µg/mL | 1.0 µg/mL | 1.0/1.0 μg/ml | 1.0/1.0 μg/ml | 5.0/5.0 μg/ml | 5.0/5.0 μg/ml | 5.0/5.0 μg/ml | 5.0/5.0 μg/ml | –
KKKKKKIIKKII-NH2 [SP1-22] | >10/>10 μg/ml | >10/>10 μg/ml | >10/>10 μg/ml | >10/>10 μg/ml | 2.5 µg/mL | 10 µg/mL | 1.0 µg/mL | 5.0 µg/mL | >10/>10 μg/ml | >10/>10 μg/ml | >10/>10 μg/ml | >10/>10 μg/ml | –
RKKKLKIIKRLI-NH2 [SP1-7] | >10/>10 μg/ml | >10/>10 μg/ml | 0.5 µg/mL | 2.5 µg/mL | 0.1 µg/mL | 0.25 µg/mL | – | 10/10 μg/ml | 2.5/2.5 μg/ml | 2.5/2.5 μg/ml | 1.0/1.0 μg/ml | 1.0/1.0 μg/ml | 10/10 μg/ml
RKKKFKIFKRLF-NH2 [SP1-14] | >10/>10 μg/ml | >10/>10 μg/ml | 0.5 µg/mL | 1.0 µg/mL | < 0.1 µg/mL | 0.5 µg/mL | – | – | 1.0 µg/mL | 2.5 µg/mL | 1.0 µg/mL | 2.5 µg/mL | 1.0 to 5.0 µg/mL
RKKKIKIIKRLI-NH2 [SP1-8] | >10/>10 μg/ml | >10/>10 μg/ml | 2.5/2.5 μg/ml | 2.5/2.5 μg/ml | 0.25 µg/mL | 0.5 µg/mL | – | 10/10 μg/ml | 5.0 µg/mL | > 10 µg/mL | 2.5 µg/mL | 5.0 µg/mL | 10/10 μg/ml
RKKKLKVVKRLV-NH2 [SP1-6] | >10/>10 μg/ml | >10/>10 μg/ml | >10/>10 μg/ml | >10/>10 μg/ml | 5.0 µg/mL | > 10 µg/mL | 1.0/1.0 μg/ml | 1.0/1.0 μg/ml | 10/>10 μg/ml | 10/>10 μg/ml | >10/>10 μg/ml | >10/>10 μg/ml | –
RKKKFKFFKRFF-NH2 [SP1-13] | >10/>10 μg/ml | >10/>10 μg/ml | < 0.1 µg/mL | 0.25 µg/mL | 0.1 µg/mL | 0.5 µg/mL | – | 5.0 µg/mL | 0.25 µg/mL | 1.0 µg/mL | 0.5 µg/mL | 2.5 µg/mL | 1.0 µg/mL
RKKKKKIIKKLI-NH2 [SP1-21] | >10/>10 μg/ml | >10/>10 μg/ml | 2.5 µg/mL | 5.0 µg/mL | 0.5 µg/mL | 2.5 µg/mL | 2.5 µg/mL | 5.0 µg/mL | >10/>10 μg/ml | >10/>10 μg/ml | >10/>10 μg/ml | >10/>10 μg/ml | –
